Assay results published in ChEMBL document CHEMBL1201862, “PubChem BioAssay data set” (2004).
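Cultured in 96-well plates, cells were exposed to test compound for 48 hours across five concentrations. GI50 = concentration required for 50% inhibition of growth.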 Calls of active or inactive are those of the source. No stated cut-off is given here; in the data, active = GI50 up to about 1.1 µM and inactive = higher.

Tests used:
Experiment in all cases: growth of human tumour cells (NCI), 48 h
786-0 = tested on: 786-0
A549 = tested on: A549
BT-549 = tested on: BT-549
COLO 205 = tested on: COLO 205
HCT-15 = tested on: HCT-15
IGROV-1 = tested on: IGROV-1
MDA-MB-435 = tested on: MDA-MB-435
NCI-H226 = tested on: NCI-H226
NCI-H23 = tested on: NCI-H23
NCI-H460 = tested on: NCI-H460
NCI/ADR-RES = tested on: NCI/ADR-RES
OVCAR-4 = tested on: OVCAR-4
OVCAR-5 = tested on: OVCAR-5
PC-3 = tested on: PC-3
SF-295 = tested on: SF-295
SK-MEL-28 = tested on: SK-MEL-28
SN12C = tested on: SN12C
UACC-257 = tested on: UACC-257
UO-31 = tested on: UO-31
RXF 393 = tested on: RXF 393

Compound | GI50 (786-0) | GI50 (A549) | GI50 (BT-549) | GI50 (COLO 205) | GI50 (HCT-15) [µM] | GI50 (IGROV-1) | GI50 (MDA-MB-435) | GI50 (NCI-H226) | GI50 (NCI-H23) | GI50 (NCI-H460) | GI50 (NCI/ADR-RES) | GI50 (OVCAR-4) | GI50 (OVCAR-5) | GI50 (PC-3) | GI50 (SF-295) | GI50 (SK-MEL-28) | GI50 (SN12C) | GI50 (UACC-257) | GI50 (UO-31) | GI50 (RXF 393)
C/C(=N\NC(=S)N/N=C(\C)c1ccccn1)c1ccccn1 | 2.07 µM (inactive) | 2.18 µM (inactive) | 5.22 µM (inactive) | 3 µM (inactive) | 0.627 | 4.28 µM (inactive) | 6.9 µM (inactive) | 0.738 µM (active) | 4.6 µM (inactive) | 0.533 µM (active) | 0.381 µM (active) | 1.04 µM (active) | 0.675 µM (active) | 1.27 µM (inactive) | 1.57 µM (inactive) | 8.36 µM (inactive) | 0.345 µM (active) | 4.09 µM (inactive) | 0.809 µM (active) | 
CCCC(CCC(N)=O)(CCC(N)=O)[N+](=O)[O-] | > 100 µM (inactive) | > 100 µM (inactive) | > 100 µM (inactive) | > 100 µM (inactive) | > 100 | > 100 µM (inactive) | > 100 µM (inactive) | > 100 µM (inactive) | > 100 µM (inactive) | > 100 µM (inactive) | > 100 µM (inactive) |  | > 100 µM (inactive) | > 100 µM (inactive) | > 100 µM (inactive) |  | > 100 µM (inactive) | > 100 µM (inactive) | > 100 µM (inactive) | 69.3 µM (inactive)
CCC(O)CC1OC2(CCC1C)CC1OC(=O)/C=C\C(C)(O)C(O)C(C)C(O)C(OC3CC(OC)C(O)C(C)O3)C(O)C(C)(O)CCC/C=C/C3CC(C)COC3(O)CC(O2)C1C (stereo unspecified) | 20.2 µM (inactive) | < 0.0214 µM (active) | 3.66 µM (inactive) | 0.237 µM (active) | 9.62 | 18.3 µM (inactive) | 1.91 µM (inactive) | 0.0904 µM (active) | < 0.0176 µM (active) | 6.62 µM (inactive) | 1.67 µM (inactive) |  | 6.18 µM (inactive) | < 0.0251 µM (active) | < 0.016 µM (active) | 13.8 µM (inactive) | 15.7 µM (inactive) | < 0.01 µM (active) | 11.2 µM (inactive) | 26.2 µM (inactive)
CNC(=O)N1CCN(C(=O)NC)CCN(C(=O)NC)CC1 | > 100 µM (inactive) | > 100 µM (inactive) | > 100 µM (inactive) | > 100 µM (inactive) | > 100 | > 100 µM (inactive) |  | > 100 µM (inactive) | > 100 µM (inactive) | > 100 µM (inactive) | > 100 µM (inactive) |  | > 100 µM (inactive) | > 100 µM (inactive) | > 100 µM (inactive) | > 100 µM (inactive) | > 100 µM (inactive) | > 100 µM (inactive) | > 100 µM (inactive) | > 100 µM (inactive)
CCOC(=O)c1c(N2CCCC2)[nH]c(=O)c(C(c2ccco2)c2c(O)c(C(=O)OCC)c(N3CCCC3)[nH]c2=O)c1O | 29.2 µM (inactive) | > 100 µM (inactive) | > 100 µM (inactive) | > 100 µM (inactive) | > 100 |  | > 100 µM (inactive) | > 100 µM (inactive) | > 100 µM (inactive) | > 100 µM (inactive) | > 100 µM (inactive) | > 100 µM (inactive) | 67.9 µM (inactive) | > 100 µM (inactive) | 40.3 µM (inactive) | > 100 µM (inactive) | > 100 µM (inactive) | > 100 µM (inactive) | > 100 µM (inactive) | 54.5 µM (inactive)
CC(=O)C(C)(C)CCC(C)(C)C(C)=O | > 100 µM (inactive) | > 100 µM (inactive) | > 100 µM (inactive) | > 100 µM (inactive) | > 100 | > 100 µM (inactive) |  | > 100 µM (inactive) | > 100 µM (inactive) | > 100 µM (inactive) | > 100 µM (inactive) | > 100 µM (inactive) | > 100 µM (inactive) | > 100 µM (inactive) | > 100 µM (inactive) | > 100 µM (inactive) | > 100 µM (inactive) | > 100 µM (inactive) | > 100 µM (inactive) | < 0.01 µM (active)
N#Cc1c(N2CCCC2)nsc1Nc1ccc(F)cc1 | > 100 µM (inactive) | > 100 µM (inactive) |  | > 100 µM (inactive) | > 100 | > 100 µM (inactive) | > 100 µM (inactive) | > 100 µM (inactive) | > 100 µM (inactive) | > 100 µM (inactive) | > 100 µM (inactive) | > 100 µM (inactive) | > 100 µM (inactive) | > 100 µM (inactive) | > 100 µM (inactive) | > 100 µM (inactive) | > 100 µM (inactive) | > 100 µM (inactive) | > 10 µM (inactive) | > 100 µM (inactive)
COc1cc(-c2[o+]c3cc(O)cc(OC4OC(CO)C(O)C(O)C4O)c3cc2OC2OC(CO)C(O)C(O)C2O)cc(OC)c1O (stereo unspecified) | > 100 µM (inactive) | > 100 µM (inactive) | > 100 µM (inactive) | > 100 µM (inactive) | > 100 | > 100 µM (inactive) | > 100 µM (inactive) | > 100 µM (inactive) | > 100 µM (inactive) | > 100 µM (inactive) |  | > 100 µM (inactive) | > 100 µM (inactive) | > 100 µM (inactive) | > 100 µM (inactive) | > 100 µM (inactive) | > 100 µM (inactive) | > 100 µM (inactive) | > 100 µM (inactive) | > 100 µM (inactive)
O=C1c2ccccc2-c2nc3ccncc3n21 | > 100 µM (inactive) | > 100 µM (inactive) | > 100 µM (inactive) | > 100 µM (inactive) | > 100 | > 100 µM (inactive) |  | > 100 µM (inactive) | > 100 µM (inactive) | > 100 µM (inactive) | > 100 µM (inactive) | > 100 µM (inactive) | > 100 µM (inactive) | > 100 µM (inactive) | > 100 µM (inactive) | > 100 µM (inactive) | > 100 µM (inactive) | > 100 µM (inactive) | > 100 µM (inactive) | > 100 µM (inactive)
COc1cccc(C2c3cc4c(cc3OC(Nc3ccccc3)C2C)OCO4)c1OC (stereo unspecified) | 10.6 µM (inactive) | 6.04 µM (inactive) | 9.12 µM (inactive) | 4.98 µM (inactive) | 4.37 | 14.9 µM (inactive) | 14.8 µM (inactive) | 1.84 µM (inactive) | 42 µM (inactive) | 3.43 µM (inactive) |  |  | 44.5 µM (inactive) | 4.47 µM (inactive) | 5.55 µM (inactive) | 41.3 µM (inactive) | 6.4 µM (inactive) | 35.6 µM (inactive) | 4.19 µM (inactive) | 3.66 µM (inactive)
C1=C(CC2=C[P+](c3ccccc3)(c3ccccc3)C=C(c3ccccc3)O2)OC(c2ccccc2)=C[P+]1(c1ccccc1)c1ccccc1 | 0.684 µM (active) | 0.494 µM (active) | 0.097 µM (active) | 0.162 µM (active) | 1.63 | 0.184 µM (active) | 0.304 µM (active) |  | 0.448 µM (active) | 0.577 µM (active) | 14.3 µM (inactive) |  | 1.04 µM (active) | 0.337 µM (active) | 0.566 µM (active) | 0.724 µM (active) | 0.339 µM (active) | 0.352 µM (active) | 1.56 µM (inactive) | 
CCCc1n[nH]c(=O)n1N1C(=O)C=CC1=O | > 100 µM (inactive) | > 100 µM (inactive) | 30.5 µM (inactive) | > 100 µM (inactive) | > 100 | > 100 µM (inactive) | > 100 µM (inactive) |  | > 100 µM (inactive) | > 100 µM (inactive) |  | > 100 µM (inactive) | > 100 µM (inactive) | > 100 µM (inactive) | > 100 µM (inactive) |  | > 100 µM (inactive) | > 100 µM (inactive) |  | > 100 µM (inactive)
CC(=O)O[C@@H]1[C@H]2O[C@H]2[C@H]2O[C@@]2(COC(=O)c2ccccc2)[C@H]1OC(C)=O | > 100 µM (inactive) | > 100 µM (inactive) | > 100 µM (inactive) | > 100 µM (inactive) | > 100 | 35.8 µM (inactive) | > 100 µM (inactive) | > 100 µM (inactive) | > 100 µM (inactive) | 34.2 µM (inactive) | > 100 µM (inactive) | > 100 µM (inactive) | > 100 µM (inactive) | > 100 µM (inactive) | > 100 µM (inactive) | > 100 µM (inactive) | > 100 µM (inactive) | > 100 µM (inactive) | > 100 µM (inactive) | 
COC1=C(OC)C(=O)C(Cc2c(Cl)nc3n2CCS3)=C(C)C1=O | 18.2 µM (inactive) | 15.3 µM (inactive) | 14.4 µM (inactive) | 17.2 µM (inactive) | 17.1 | 16.9 µM (inactive) | 13.9 µM (inactive) |  | 12.3 µM (inactive) | 15 µM (inactive) | 12.8 µM (inactive) | 7.73 µM (inactive) | 17.6 µM (inactive) | 17.7 µM (inactive) | 14.8 µM (inactive) | 14.2 µM (inactive) | 16.3 µM (inactive) | 9.84 µM (inactive) | 13.7 µM (inactive) | 17.4 µM (inactive)
O=C(c1ccc(-c2ccccc2)cc1)N(Cc1cccnc1)C(=S)N(Cc1cccnc1)C(=O)c1ccc(-c2ccccc2)cc1 | > 100 µM (inactive) | > 100 µM (inactive) | 55 µM (inactive) | > 100 µM (inactive) | 87.3 |  | 54.6 µM (inactive) | 76.2 µM (inactive) | > 100 µM (inactive) | > 100 µM (inactive) | > 100 µM (inactive) | 32.7 µM (inactive) | > 100 µM (inactive) | > 100 µM (inactive) | > 100 µM (inactive) | > 100 µM (inactive) | > 100 µM (inactive) | > 100 µM (inactive) | 51.9 µM (inactive) | 
